Experimental findings from patent US8022091B2, “Triazole derivative” (Taisho Pharmaceutical Co., Ltd., priority 2006, dated 2011) are described below.

T1 sequence (P21453 whole entry): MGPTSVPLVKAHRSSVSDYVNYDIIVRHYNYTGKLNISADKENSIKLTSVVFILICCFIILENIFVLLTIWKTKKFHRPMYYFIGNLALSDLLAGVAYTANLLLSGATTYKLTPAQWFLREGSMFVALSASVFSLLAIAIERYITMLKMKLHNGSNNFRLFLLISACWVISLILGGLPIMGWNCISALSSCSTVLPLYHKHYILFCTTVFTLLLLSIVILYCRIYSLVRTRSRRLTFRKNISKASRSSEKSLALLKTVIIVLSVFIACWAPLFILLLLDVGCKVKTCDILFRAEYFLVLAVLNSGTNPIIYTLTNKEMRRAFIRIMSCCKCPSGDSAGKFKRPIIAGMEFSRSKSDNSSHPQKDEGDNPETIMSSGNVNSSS

The experiment addresses T1, human Edg-1 (S1P1) (Homo sapiens, UniProt P21453).
T1 construct: expressed in transfected cells; host or cells: HEK-293
The experiment in a line: S1P1 binding assay: inhibition of [33P]-S1P binding to membrane fraction of HEK-293 cells transferred with the human Edg-1 (S1P1) gene. Particulars: test compound at 10 μM; inhibition of [33P]-S1P binding to the membrane fraction of HEK-293 cells expressing human Edg-1 (S1P1). The method, then: The membrane fraction was obtained by treating the cells with a solubilizing buffer (1 mM Tris/HCl, pH 7.2) for 10 minutes on ice, centrifuging at 1000×g for 5 minutes to remove insoluble fractions, and then centrifuging at 40000×g for 30 minutes at 4° C. The resulting membrane fraction was dissolved in a binding buffer (20 mM Tris-HCl, pH 7.4, 100 mM NaCl, 15 mM NaF, 2 mM deoxypyridoxine, 4 mg/mL fatty acid-free BSA), and then [^33P]-S1P (manufactured by ARC, final concentration 0.1 nM) and a DMSO solution (final concentration of the compound 10^−5M, final concentration of DMSO 0.1%) of the test compound were added. Thereafter, the mixture was stirred and then treated for one hour at 30° C. Using a harvester, the membrane fraction was harvested onto unifilter-96 GF/C filter (manufactured by Perkin Elmer), washing was carried out four times with the binding buffer, and the filter was dried. Twenty five μL Microscint 0 (manufactured by Perkin Elmer) was added, and radioactivity was measured using Top Count NXT (manufactured by Packard) to calculate the amount (A) of [^33P]-S1P bound to the membrane fraction at the time when the compound was added.
The same procedure was carried out in the absence of the test compound, and the amount (B) of [^33P]-S1P bound was calculated. Further, the same procedure was carried out in the absence of the test compound by use of HEK-293 cells to which no Edg-1 (S1P1) gene was introduced, and the background amount (C) of [^33P]-S1P bound was calculated.
Inhibition rate (%)=[1−(A−C)/(B−C)]×100
Further, concentrations (IC50) at the time when binding in the absence of the test compound was inhibited by 50% were calculated. The membrane system binding assay was carried out in the presence of test compounds with various concentrations, and the Edg-1 (S1P1) binding inhibition rates were calculated using the equation above. Then, IC50 values were calculated using Origin (Lightstone Corp.), a software for data analysis.
By inhibition is commonly meant the relative decrease from the control value, in per cent. For the compound `CCn1c(Oc2ccc(F)cc2)nnc1[C@@H](C)NS(=O)(=O)c1cccc(C(C)=O)c1` [Compound 306], the inhibition at 10 µM came to 60.2%. Regarding `CCn1c(Oc2ccc(F)cc2)nnc1[C@@H](C)NS(=O)(=O)c1ccc(F)c2ccccc12` [Compound 307], the inhibition at 10 µM turned out to be 94.4%. With `CCc1ccc(OC)c(S(=O)(=O)N[C@H](C)c2nnc(Oc3ccc(F)cc3)n2CC)c1` [Compound 311], the inhibition at 10 µM amounted to 76.5%. `CCn1c(Oc2ccc(F)cc2)nnc1[C@@H](C)NS(=O)(=O)c1ccc(Cl)c(S(N)(=O)=O)c1` [Compound 314]: the inhibition at 10 µM came to 52.2%. As to `CCn1c(Oc2ccc(F)cc2)nnc1[C@@H](C)NS(=O)(=O)c1ccc(Br)c(C(F)(F)F)c1` [Compound 318], the inhibition at 10 µM turned out to be 78.9%. In the case of `CCn1c(Oc2ccc(F)cc2)nnc1[C@@H](C)NS(=O)(=O)c1cc(Br)cc(C(F)(F)F)c1` [Compound 319], the inhibition at 10 µM is 61.7%. In the case of `CCn1c(Oc2ccc(F)cc2)nnc1[C@@H](C)NS(=O)(=O)c1cc2ccccc2s1` [Compound 323], the inhibition at 10 µM worked out at 77.9%. As for `CCn1c(Cc2ccc(F)cc2)nnc1[C@@H](C)NS(=O)(=O)c1csc2ccccc12` [Compound 324], the figure is 81.8%; as for `CCn1c(Oc2ccc3cc[nH]c3c2)nnc1[C@@H](C)NS(=O)(=O)c1ccc(C(C)=O)cc1` [Compound 327], 92.3%; as for `CCn1c(Oc2ccc3cc[nH]c3c2)nnc1[C@@H](C)NS(=O)(=O)c1ccccc1` [Compound 328], 85.2%. For the compound `CCn1c(Oc2ccc3cc[nH]c3c2)nnc1[C@@H](C)NS(=O)(=O)c1ccc(Br)cc1` [Compound 329], the inhibition at 10 µM is 101%. On to `CCn1c(Oc2ccc3cc[nH]c3c2)nnc1[C@@H](C)NS(=O)(=O)c1ccc(C(C)(C)C)cc1` [Compound 330], for which the inhibition at 10 µM was 81.6%.

In the case of `CCn1c(Oc2ccc3cc[nH]c3c2)nnc1[C@@H](C)NS(=O)(=O)c1ccccc1Br` [Compound 331], the inhibition at 10 µM was 59.8%. Turning to `CCn1c(Oc2ccc3cc[nH]c3c2)nnc1[C@@H](C)NS(=O)(=O)c1cccc(Br)c1` [Compound 333], the inhibition at 10 µM stood at 102%. Turning to `CCn1c(Oc2ccc3cc[nH]c3c2)nnc1[C@@H](C)NS(=O)(=O)c1ccc(Cl)cc1` [Compound 335], the inhibition at 10 µM came out at 106%. Under `CCn1c(Oc2ccc3cc[nH]c3c2)nnc1[C@@H](C)NS(=O)(=O)c1ccccc1C#N` [Compound 336] stands 56.8%. `CCn1c(Oc2ccc3cc[nH]c3c2)nnc1[C@@H](C)NS(=O)(=O)c1cccc(C#N)c1` [Compound 338]: the inhibition at 10 µM was 69.2%.

Take `CCn1c(Oc2ccc3cc[nH]c3c2)nnc1[C@@H](C)NS(=O)(=O)c1sc2ccc(Cl)cc2c1C` [Compound 339]: the inhibition at 10 µM was 62.8%.

`CCn1c(Oc2ccc3cc[nH]c3c2)nnc1[C@@H](C)NS(=O)(=O)c1cc(C)c(Cl)cc1C` [Compound 340]: the inhibition at 10 µM amounted to 100%. On to `CCn1c(Oc2ccc3cc[nH]c3c2)nnc1[C@@H](C)NS(=O)(=O)c1cc(Cl)ccc1Cl` [Compound 341], for which the inhibition at 10 µM is 92.8%. Under `CCn1c(Oc2ccc3cc[nH]c3c2)nnc1[C@@H](C)NS(=O)(=O)c1c(Cl)cccc1Cl` [Compound 342] stands 53.6%.

For the compound `CCn1c(Oc2ccc3cc[nH]c3c2)nnc1[C@@H](C)NS(=O)(=O)c1ccc(OC)c(OC)c1` [Compound 343], the inhibition at 10 µM turned out to be 86.5%. As for `CCc1ccc(S(=O)(=O)N[C@H](C)c2nnc(Oc3ccc4cc[nH]c4c3)n2CC)cc1` [Compound 345], the figure is 90.4%; as for `CCn1c(Oc2ccc3cc[nH]c3c2)nnc1[C@@H](C)NS(=O)(=O)c1ccc(F)cc1` [Compound 346], 89.2%; as for `CCn1c(Oc2ccc3cc[nH]c3c2)nnc1[C@@H](C)NS(=O)(=O)c1c(C)cc(C)cc1C` [Compound 347], 50.1%. Regarding `CCn1c(Oc2ccc3cc[nH]c3c2)nnc1[C@@H](C)NS(=O)(=O)c1ccc(OC)cc1` [Compound 348], the inhibition at 10 µM turned out to be 109%. In the case of `CCn1c(Oc2ccc3cc[nH]c3c2)nnc1[C@@H](C)NS(=O)(=O)c1ccc(S(C)(=O)=O)cc1` [Compound 350], the inhibition at 10 µM was 75%. As for `CCn1c(Oc2ccc3cc[nH]c3c2)nnc1[C@@H](C)NS(=O)(=O)c1cccc2ccccc12` [Compound 352], the inhibition at 10 µM was found to be 88.5%. In the case of `CCn1c(Oc2ccc3cc[nH]c3c2)nnc1[C@@H](C)NS(=O)(=O)CCc1cccc2ccccc12` [Compound 353], the inhibition at 10 µM came to 92.3%. As for `CCn1c(Oc2ccc3cc[nH]c3c2)nnc1[C@@H](C)NS(=O)(=O)c1ccc(I)cc1` [Compound 355], the inhibition at 10 µM was 98.8%. Turning to `CCn1c(Oc2ccc3cc[nH]c3c2)nnc1[C@@H](C)NS(=O)(=O)/C=C/c1ccccc1` [Compound 356], the inhibition at 10 µM was determined as 95.6%. Under `CCn1c(Oc2ccc3cc[nH]c3c2)nnc1[C@@H](C)NS(=O)(=O)c1cc(Cl)c(Cl)cc1Cl` [Compound 357] stands 106%. Turning to `CCn1c(Oc2ccc3cc[nH]c3c2)nnc1[C@@H](C)NS(=O)(=O)c1ccc(C)cc1` [Compound 359], the inhibition at 10 µM turned out to be 95.7%. On to `CCn1c(Oc2ccc3cc[nH]c3c2)nnc1[C@@H](C)NS(=O)(=O)c1ccccc1C` [Compound 361], for which the inhibition at 10 µM came to 96.9%. As to `CCn1c(Oc2ccc3cc[nH]c3c2)nnc1[C@@H](C)NS(=O)(=O)c1ccc(OC(F)(F)F)cc1` [Compound 362], the inhibition at 10 µM stood at 95.1%. For the compound `C=Cc1ccc(S(=O)(=O)N[C@H](C)c2nnc(Oc3ccc4cc[nH]c4c3)n2CC)cc1` [Compound 363], the inhibition at 10 µM was 96.2%. As to `CCn1c(Oc2ccc3cc[nH]c3c2)nnc1[C@@H](C)NS(=O)(=O)c1cccc(C)c1` [Compound 364], the inhibition at 10 µM is 87.5%. Under `CCn1c(Oc2ccc3cc[nH]c3c2)nnc1[C@@H](C)NS(=O)(=O)c1ccc2c(c1)CN(C(=O)C(F)(F)F)CC2` [Compound 366] stands 63.2%; under `CCn1c(Oc2ccc3cc[nH]c3c2)nnc1[C@@H](C)NS(=O)(=O)c1cc(C)ccc1C` [Compound 367], 94.3%. For the compound `CCn1c(Oc2ccc3cc[nH]c3c2)nnc1[C@@H](C)NS(=O)(=O)c1ccc(-c2csnn2)s1` [Compound 368], the inhibition at 10 µM came out at 60.5%. Consider `CCn1c(Oc2ccc3cc[nH]c3c2)nnc1[C@@H](C)NS(=O)(=O)c1ccc(C(=O)OC)n1C` [Compound 372], for which the inhibition at 10 µM amounted to 106%.

For the compound `CCCc1ccc(S(=O)(=O)N[C@H](C)c2nnc(Oc3ccc4cc[nH]c4c3)n2CC)cc1` [Compound 377], the inhibition at 10 µM came out at 73.9%. Turning to `CCn1c(Oc2ccc3cc[nH]c3c2)nnc1[C@@H](C)NS(=O)(=O)c1c(C)c(C)cc(C)c1C` [Compound 378], the inhibition at 10 µM is 71.6%. In the case of `CCn1c(Oc2ccc3cc[nH]c3c2)nnc1[C@@H](C)NS(=O)(=O)c1cccc(Cl)c1Cl` [Compound 379], the inhibition at 10 µM turned out to be 89.2%. As for `CCn1c(Oc2ccc3cc[nH]c3c2)nnc1[C@@H](C)NS(=O)(=O)c1cc(C(F)(F)F)cc(C(F)(F)F)c1` [Compound 382], the figure is 66.9%. As to `CCn1c(Oc2ccc3cc[nH]c3c2)nnc1[C@@H](C)NS(=O)(=O)c1cc(Cl)cc(Cl)c1` [Compound 383], the inhibition at 10 µM came out at 83.6%. As for `CCn1c(Oc2ccc3cc[nH]c3c2)nnc1[C@@H](C)NS(=O)(=O)c1cccc(Cl)c1C` [Compound 384], the inhibition at 10 µM was 88.1%. As for `CCn1c(Oc2ccc3cc[nH]c3c2)nnc1[C@@H](C)NS(=O)(=O)c1ccc(F)c(Cl)c1` [Compound 385], the inhibition at 10 µM was determined as 98%.

`CCn1c(Oc2ccc3cc[nH]c3c2)nnc1[C@@H](C)NS(=O)(=O)c1cccc(OC)c1` [Compound 386]: the inhibition at 10 µM is 84%. Under `CCn1c(Oc2ccc3cc[nH]c3c2)nnc1[C@@H](C)NS(=O)(=O)c1cc(F)c(Br)cc1F` [Compound 387] stands 63.5%; under `CCn1c(Oc2ccc3cc[nH]c3c2)nnc1[C@@H](C)NS(=O)(=O)c1c(C)cc(OC)c(C)c1C` [Compound 388], 65.8%; under `CCn1c(Oc2ccc3cc[nH]c3c2)nnc1[C@@H](C)NS(=O)(=O)c1cc(Br)ccc1OC` [Compound 389], 88%. Consider `CCn1c(Oc2ccc3cc[nH]c3c2)nnc1[C@@H](C)NS(=O)(=O)c1cc(F)ccc1C` [Compound 390], for which the inhibition at 10 µM worked out at 65.9%. For the compound `CCn1c(Oc2ccc3cc[nH]c3c2)nnc1[C@@H](C)NS(=O)(=O)c1c(C)c(C)c(C)c(C)c1C` [Compound 391], the inhibition at 10 µM amounted to 80.4%. In the case of `CCn1c(Oc2ccc3cc[nH]c3c2)nnc1[C@@H](C)NS(=O)(=O)c1ccc(Br)c(Br)c1` [Compound 392], the inhibition at 10 µM came to 73.6%.
